Test results published in the supplement of paper PMC10307832.

Columns and labels:
Assay in all cases: relative viability (nuclei count vs DMSO), 5 days (fraction); higher = more cells survive
[1] = compound: Cn1cc(-c2cnn3c(N)c(Br)c([C@@H]4CCCNC4)nc23)cn1 + CC(=O)c1c(C)c2cnc(Nc3ccc(N4CCNCC4)cn3)nc2n(C2CCCC2)c1=O [Palbociclib] (partner 0.5 µM)
Outline: (§1)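 Relative viability divides the nuclei count in treated wells by that in vehicle wells. Lung cancer cell lines were seeded in 1536-well plates, dosed by pin tool the next day, and fixed and stained after 5 days in one step with final 0.05% Triton X-100, 1% formaldehyde and 1 ug/ml Hoechst. Dosing was a single drug or a fixed anchor-drug dose plus five library-drug doses (not always all listed) in √10 steps, and values are medians of duplicate plates imaged at 4×.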

[2] = compound: Cn1cc(-c2cnn3c(N)c(Br)c([C@@H]4CCCNC4)nc23)cn1 + N=C(N)NC(=N)NCCc1ccccc1 [Phenformin] (partner 250 µM)
Outline: as §1

[3] = compound: Cn1cc(-c2cnn3c(N)c(Br)c([C@@H]4CCCNC4)nc23)cn1 + CS(=O)(=O)N1CCN(Cc2cc3nc(-c4cccc5[nH]ncc45)nc(N4CCOCC4)c3s2)CC1 [Pictilisib] (partner 1 µM)
Outline: as §1

[4] = compound: Cn1cc(-c2cnn3c(N)c(Br)c([C@@H]4CCCNC4)nc23)cn1 + Nc1ncn([C@H]2C[C@H](O)[C@@H](CO)O2)c(=O)n1 [Decitabine] (partner 2 µM)
Outline: as §1

| Cell Line | relative viability ([1]; first compound 0.05 µM) | relative viability ([1]; first compound 0.1581 µM) | relative viability ([1]; first compound 0.5 µM) | relative viability ([1]; first compound 1.581 µM) | relative viability ([1]; first compound 5 µM) | relative viability ([2]; first compound 0.05 µM) | relative viability ([2]; first compound 0.1581 µM) | relative viability ([2]; first compound 0.5 µM) | relative viability ([2]; first compound 1.581 µM) | relative viability ([2]; first compound 5 µM) | relative viability ([3]; first compound 0.05 µM) | relative viability ([3]; first compound 0.1581 µM) | relative viability ([3]; first compound 0.5 µM) | relative viability ([3]; first compound 1.581 µM) | relative viability ([3]; first compound 5 µM) | relative viability ([4]; first compound 0.05 µM) | relative viability ([4]; first compound 0.1581 µM) | relative viability ([4]; first compound 0.5 µM) | relative viability ([4]; first compound 1.581 µM) | relative viability ([4]; first compound 5 µM) |
| --- | --- | --- | --- | --- | --- | --- | --- | --- | --- | --- | --- | --- | --- | --- | --- | --- | --- | --- | --- | --- |
| HCC-44 | 0.876 | 0.957 | 0.978 | 0.964 | 0.952 | 0.155 | 0.193 | 0.179 | 0.188 | 0.172 | 0.566 | 0.577 | 0.63 | 0.465 | 0.427 | 0.887 | 1.06 | 1.04 | 0.969 | 0.964 |
| PC-14 | 0.614 | 0.358 | 0.269 | 0.156 | 0.121 | 0.515 | 0.429 | 0.668 | 0.388 | 0.211 | 0.73 | 0.685 | 0.558 | 0.504 | 0.248 | 0.237 | 0.2 | 0.206 | 0.186 | 0.123 |
| HOP-62 | 0.438 | 0.5 | 0.485 | 0.417 | 0.334 | 0.648 | 0.866 | 0.737 | 0.527 | 0.62 | 0.896 | 0.699 | 0.586 | 0.444 | 0.455 | 0.252 | 0.2 | 0.191 | 0.239 | 0.269 |
| NCI-H358 | 0.151 | 0.134 | 0.128 | 0.104 | 0.111 | 0.293 | 0.344 | 0.308 | 0.216 | 0.261 | 0.314 | 0.346 | 0.309 | 0.352 | 0.304 | 0.206 | 0.235 | 0.232 | 0.217 | 0.185 |
| SK-MES-1 | 0.315 | 0.327 | 0.308 | 0.273 | 0.238 | 0.664 | 0.735 | 0.663 | 0.419 | 0.188 | 0.333 | 0.395 | 0.336 | 0.288 | 0.216 | 0.356 | 0.413 | 0.336 | 0.355 | 0.204 |
| NCI-H1666 | 0.674 | 0.654 | 0.649 | 0.615 | 0.618 | 0.536 | 0.552 | 0.573 | 0.549 | 0.593 | 0.657 | 0.429 | 0.338 | 0.464 | 0.413 | 0.629 | 0.699 | 0.719 | 0.698 | 0.713 |
| NCI-H1355 | 0.371 | 0.425 | 0.397 | 0.385 | 0.382 | 0.428 | 0.51 | 0.467 | 0.366 | 0.415 | 0.402 | 0.474 | 0.467 | 0.408 | 0.342 | 0.344 | 0.332 | 0.378 | 0.417 | 0.358 |
| HCC-827 | 0.48 | 0.437 | 0.491 | 0.471 | 0.451 | 0.289 | 0.452 | 0.368 | 0.388 | 0.389 | 0.999 | 1.13 | 0.974 | 1 | 0.928 | 0.34 | 0.38 | 0.339 | 0.361 | 0.305 |
